Patent US7635572B2, “Methods for conducting assays for enzyme activity on protein microarrays” (Life Technologies Corporation, priority 2004, dated 2009)
Like-named read-outs stand apart in the source and are kept apart here.

Columns and labels:
Experiment in all cases: Further analysis of a plurality of inhibitors and a plurality of kinases on microarray (Example IX, Table 5);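 further: inhibition of each kinase by the inhibitors is given as a qualitative level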;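 on Inhibition level, DYRK1A: level 0 none or unclear Level 1 marginal Level 2 substantial inhibition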;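 on Inhibition level, ITK: level 0 none or unclear then 1 little or marginal then 2 substantial inhibition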;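 on Inhibition level, PIM1: level 0 no or unclear inhibition to Level 2 substantial inhibition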;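 on Inhibition level, PTK2B: level 0 no or unclear inhibition to Level 2 substantial inhibition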;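 on Inhibition level, STK4: level 0 no or unclear inhibition to Level 2 substantial inhibition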
Type in all cases: biochemical
[1] = molecular target: T1, plurality of kinases (Table 5) (Homo sapiens, UniProt Q08881); settings: plate E4; inhibitor 100 uM
T1 sequence (Q08881 1-620): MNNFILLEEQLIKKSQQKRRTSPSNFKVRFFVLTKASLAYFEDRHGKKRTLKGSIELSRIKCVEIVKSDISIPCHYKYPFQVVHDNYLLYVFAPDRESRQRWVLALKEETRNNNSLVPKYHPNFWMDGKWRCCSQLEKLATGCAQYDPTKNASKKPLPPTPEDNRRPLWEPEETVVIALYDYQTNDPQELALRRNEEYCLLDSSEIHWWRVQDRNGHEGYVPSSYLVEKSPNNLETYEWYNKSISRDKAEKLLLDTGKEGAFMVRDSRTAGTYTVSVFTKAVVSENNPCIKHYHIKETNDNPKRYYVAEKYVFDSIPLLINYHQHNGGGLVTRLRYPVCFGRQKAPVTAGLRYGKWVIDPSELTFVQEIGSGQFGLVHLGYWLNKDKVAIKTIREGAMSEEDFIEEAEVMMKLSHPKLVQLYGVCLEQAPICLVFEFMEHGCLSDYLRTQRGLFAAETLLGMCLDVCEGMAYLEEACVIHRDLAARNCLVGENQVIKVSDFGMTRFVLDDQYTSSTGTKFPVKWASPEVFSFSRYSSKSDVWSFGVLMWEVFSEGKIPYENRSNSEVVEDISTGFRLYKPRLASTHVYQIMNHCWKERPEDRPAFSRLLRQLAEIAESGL

[2] = molecular target: plurality of kinases (Table 5) (Homo sapiens, UniProt P00519); settings: plate B6
[3] = molecular target: plurality of kinases (Table 5) (Homo sapiens, UniProt Q14289); settings: plate G5
plurality of kinases (Table 5) (Homo sapiens, UniProt Q14289), sequence (Q14289 whole entry): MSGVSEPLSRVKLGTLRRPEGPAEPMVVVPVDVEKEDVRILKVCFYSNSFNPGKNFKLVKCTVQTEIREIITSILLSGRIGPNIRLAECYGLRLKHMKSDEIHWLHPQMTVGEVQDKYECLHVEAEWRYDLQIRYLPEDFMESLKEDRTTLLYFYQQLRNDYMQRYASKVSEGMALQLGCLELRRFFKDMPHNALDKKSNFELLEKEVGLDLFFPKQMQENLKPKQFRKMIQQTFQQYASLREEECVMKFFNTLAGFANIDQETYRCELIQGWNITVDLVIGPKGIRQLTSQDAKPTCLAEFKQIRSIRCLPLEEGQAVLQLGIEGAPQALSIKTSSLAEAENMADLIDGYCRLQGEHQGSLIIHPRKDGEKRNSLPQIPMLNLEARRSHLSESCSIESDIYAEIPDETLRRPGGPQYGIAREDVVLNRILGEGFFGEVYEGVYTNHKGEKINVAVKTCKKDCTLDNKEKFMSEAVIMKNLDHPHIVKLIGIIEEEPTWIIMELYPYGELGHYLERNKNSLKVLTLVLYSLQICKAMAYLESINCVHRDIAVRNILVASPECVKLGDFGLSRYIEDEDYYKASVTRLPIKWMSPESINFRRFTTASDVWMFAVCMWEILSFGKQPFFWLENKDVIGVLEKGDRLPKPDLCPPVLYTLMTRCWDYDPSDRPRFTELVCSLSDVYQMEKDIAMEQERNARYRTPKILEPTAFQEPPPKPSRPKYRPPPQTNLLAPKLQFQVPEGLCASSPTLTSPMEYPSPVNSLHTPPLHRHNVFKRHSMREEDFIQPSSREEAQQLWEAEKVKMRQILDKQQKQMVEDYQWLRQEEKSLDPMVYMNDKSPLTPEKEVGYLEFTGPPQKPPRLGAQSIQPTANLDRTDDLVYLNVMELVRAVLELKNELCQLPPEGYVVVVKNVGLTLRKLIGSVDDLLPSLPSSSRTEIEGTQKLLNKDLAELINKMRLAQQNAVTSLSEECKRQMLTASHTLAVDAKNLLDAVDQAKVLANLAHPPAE

[4] = molecular target: plurality of kinases (Table 5) (Homo sapiens, UniProt P16591); settings: plate H5; inhibitor 100 uM
plurality of kinases (Table 5) (Homo sapiens, UniProt P16591), sequence (P16591 whole entry): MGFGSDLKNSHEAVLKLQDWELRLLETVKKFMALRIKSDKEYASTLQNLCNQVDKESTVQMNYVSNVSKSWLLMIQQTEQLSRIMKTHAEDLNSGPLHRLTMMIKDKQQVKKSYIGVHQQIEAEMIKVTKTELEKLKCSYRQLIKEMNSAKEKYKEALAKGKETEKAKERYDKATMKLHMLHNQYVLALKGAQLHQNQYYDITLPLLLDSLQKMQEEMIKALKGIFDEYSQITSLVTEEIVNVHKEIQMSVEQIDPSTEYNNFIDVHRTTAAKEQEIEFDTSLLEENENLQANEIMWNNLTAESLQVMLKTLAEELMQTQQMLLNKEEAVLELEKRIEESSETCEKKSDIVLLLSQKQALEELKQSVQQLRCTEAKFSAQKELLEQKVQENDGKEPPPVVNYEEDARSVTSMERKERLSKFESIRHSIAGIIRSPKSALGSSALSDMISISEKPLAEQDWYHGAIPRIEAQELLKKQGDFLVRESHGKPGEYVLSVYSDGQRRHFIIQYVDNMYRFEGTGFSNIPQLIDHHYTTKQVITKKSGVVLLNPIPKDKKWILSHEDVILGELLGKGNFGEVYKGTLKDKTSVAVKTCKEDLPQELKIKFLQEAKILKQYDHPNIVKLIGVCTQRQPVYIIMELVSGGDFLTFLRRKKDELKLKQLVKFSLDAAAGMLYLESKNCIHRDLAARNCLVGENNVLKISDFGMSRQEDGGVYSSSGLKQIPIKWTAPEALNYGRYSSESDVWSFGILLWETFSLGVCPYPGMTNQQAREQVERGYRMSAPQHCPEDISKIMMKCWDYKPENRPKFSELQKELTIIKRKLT

[5] = molecular target: T2, plurality of kinases (Table 5) (Homo sapiens, UniProt Q13043); settings: plate D6
T2 sequence (Q13043 1-487): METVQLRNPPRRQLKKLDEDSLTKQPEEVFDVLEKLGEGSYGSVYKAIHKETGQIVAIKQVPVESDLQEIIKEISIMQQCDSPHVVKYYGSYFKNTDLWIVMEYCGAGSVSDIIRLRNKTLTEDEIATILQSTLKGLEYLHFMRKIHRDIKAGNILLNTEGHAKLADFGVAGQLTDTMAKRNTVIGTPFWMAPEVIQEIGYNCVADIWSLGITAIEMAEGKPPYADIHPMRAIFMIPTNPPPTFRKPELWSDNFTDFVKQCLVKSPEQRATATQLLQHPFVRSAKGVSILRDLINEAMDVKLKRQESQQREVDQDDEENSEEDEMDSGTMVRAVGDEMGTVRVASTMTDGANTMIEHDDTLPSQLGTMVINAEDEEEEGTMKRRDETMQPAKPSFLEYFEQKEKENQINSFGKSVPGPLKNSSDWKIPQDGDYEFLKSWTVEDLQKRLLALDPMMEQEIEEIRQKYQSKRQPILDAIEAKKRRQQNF

[6] = molecular target: plurality of kinases (Table 5) (Homo sapiens, UniProt P11309)
plurality of kinases (Table 5) (Homo sapiens, UniProt P11309), sequence (P11309 whole entry): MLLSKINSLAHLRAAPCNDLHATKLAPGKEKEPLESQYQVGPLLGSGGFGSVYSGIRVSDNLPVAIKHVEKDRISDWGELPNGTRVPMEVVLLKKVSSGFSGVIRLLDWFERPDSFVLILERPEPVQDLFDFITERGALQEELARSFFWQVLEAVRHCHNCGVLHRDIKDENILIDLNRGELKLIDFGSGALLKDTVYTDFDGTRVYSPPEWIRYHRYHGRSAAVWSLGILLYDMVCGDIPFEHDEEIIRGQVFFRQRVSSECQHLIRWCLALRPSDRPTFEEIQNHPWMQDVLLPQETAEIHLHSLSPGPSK

[7] = molecular target: plurality of kinases (Table 5) (Homo sapiens, UniProt P09769); settings: plate B10
plurality of kinases (Table 5) (Homo sapiens, UniProt P09769), sequence (P09769 whole entry): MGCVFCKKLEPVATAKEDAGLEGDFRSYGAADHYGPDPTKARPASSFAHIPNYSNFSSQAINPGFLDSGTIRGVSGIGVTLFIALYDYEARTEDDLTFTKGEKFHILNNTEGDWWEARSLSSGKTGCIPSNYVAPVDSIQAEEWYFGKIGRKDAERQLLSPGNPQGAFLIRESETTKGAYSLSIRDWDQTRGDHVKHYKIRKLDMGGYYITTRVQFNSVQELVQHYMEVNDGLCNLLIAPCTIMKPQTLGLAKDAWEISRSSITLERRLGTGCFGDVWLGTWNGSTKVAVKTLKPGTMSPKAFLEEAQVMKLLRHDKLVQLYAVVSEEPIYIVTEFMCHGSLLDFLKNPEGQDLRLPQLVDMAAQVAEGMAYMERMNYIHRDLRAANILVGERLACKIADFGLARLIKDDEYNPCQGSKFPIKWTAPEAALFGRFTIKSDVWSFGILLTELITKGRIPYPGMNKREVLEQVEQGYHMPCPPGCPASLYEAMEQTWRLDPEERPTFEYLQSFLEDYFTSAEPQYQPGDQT

[8] = molecular target: plurality of kinases (Table 5) (Homo sapiens, UniProt Q9Y6E0); settings: plate F11; inhibitor 100 uM
plurality of kinases (Table 5) (Homo sapiens, UniProt Q9Y6E0), sequence (Q9Y6E0 whole entry): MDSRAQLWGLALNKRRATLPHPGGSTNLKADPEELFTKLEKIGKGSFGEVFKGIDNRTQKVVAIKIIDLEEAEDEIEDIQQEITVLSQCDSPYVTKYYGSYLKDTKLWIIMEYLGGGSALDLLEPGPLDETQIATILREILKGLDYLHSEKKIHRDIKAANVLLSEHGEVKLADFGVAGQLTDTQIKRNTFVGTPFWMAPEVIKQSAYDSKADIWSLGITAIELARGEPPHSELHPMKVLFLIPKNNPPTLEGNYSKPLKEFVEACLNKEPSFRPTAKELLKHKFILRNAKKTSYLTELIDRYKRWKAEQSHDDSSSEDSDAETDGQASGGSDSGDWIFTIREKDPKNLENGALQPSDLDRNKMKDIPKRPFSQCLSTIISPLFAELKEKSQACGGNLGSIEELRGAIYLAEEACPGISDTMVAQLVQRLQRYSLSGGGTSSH

[9] = molecular target: plurality of kinases (Table 5) (Homo sapiens, UniProt P07949); settings: plate B7
plurality of kinases (Table 5) (Homo sapiens, UniProt P07949), sequence (P07949 29-1114): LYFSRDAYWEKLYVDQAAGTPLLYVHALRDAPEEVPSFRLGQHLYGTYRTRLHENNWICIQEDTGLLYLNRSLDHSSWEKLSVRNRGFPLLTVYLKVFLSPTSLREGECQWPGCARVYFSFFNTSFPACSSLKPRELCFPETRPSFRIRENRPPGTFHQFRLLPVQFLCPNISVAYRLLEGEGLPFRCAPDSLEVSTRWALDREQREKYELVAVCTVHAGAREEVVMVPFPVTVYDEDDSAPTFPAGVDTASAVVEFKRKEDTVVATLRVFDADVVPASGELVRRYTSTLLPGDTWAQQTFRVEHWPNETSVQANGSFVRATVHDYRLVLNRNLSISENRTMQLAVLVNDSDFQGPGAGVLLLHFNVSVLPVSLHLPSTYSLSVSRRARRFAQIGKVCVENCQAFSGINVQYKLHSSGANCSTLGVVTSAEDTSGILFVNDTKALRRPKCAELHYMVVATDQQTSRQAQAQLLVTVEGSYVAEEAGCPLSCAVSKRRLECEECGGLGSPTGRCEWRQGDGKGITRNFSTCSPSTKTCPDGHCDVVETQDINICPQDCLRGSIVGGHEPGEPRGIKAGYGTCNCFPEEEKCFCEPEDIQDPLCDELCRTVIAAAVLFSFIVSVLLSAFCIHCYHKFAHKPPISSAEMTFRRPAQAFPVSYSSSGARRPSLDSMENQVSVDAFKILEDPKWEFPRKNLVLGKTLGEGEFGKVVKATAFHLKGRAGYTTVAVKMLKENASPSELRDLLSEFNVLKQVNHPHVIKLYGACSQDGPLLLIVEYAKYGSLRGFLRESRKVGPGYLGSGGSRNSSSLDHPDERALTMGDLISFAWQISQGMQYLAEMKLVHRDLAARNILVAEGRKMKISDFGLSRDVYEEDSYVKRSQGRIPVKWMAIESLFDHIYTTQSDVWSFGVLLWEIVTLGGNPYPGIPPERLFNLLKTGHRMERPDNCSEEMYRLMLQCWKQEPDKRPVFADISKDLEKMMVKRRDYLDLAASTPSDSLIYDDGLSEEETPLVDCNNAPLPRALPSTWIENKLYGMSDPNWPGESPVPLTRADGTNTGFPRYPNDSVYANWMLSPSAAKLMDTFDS

[10] = molecular target: T3, plurality of kinases (Table 5) (Homo sapiens, UniProt Q9Y616); settings: plate C9; inhibitor 100 uM
T3 sequence (Q9Y616 1-596): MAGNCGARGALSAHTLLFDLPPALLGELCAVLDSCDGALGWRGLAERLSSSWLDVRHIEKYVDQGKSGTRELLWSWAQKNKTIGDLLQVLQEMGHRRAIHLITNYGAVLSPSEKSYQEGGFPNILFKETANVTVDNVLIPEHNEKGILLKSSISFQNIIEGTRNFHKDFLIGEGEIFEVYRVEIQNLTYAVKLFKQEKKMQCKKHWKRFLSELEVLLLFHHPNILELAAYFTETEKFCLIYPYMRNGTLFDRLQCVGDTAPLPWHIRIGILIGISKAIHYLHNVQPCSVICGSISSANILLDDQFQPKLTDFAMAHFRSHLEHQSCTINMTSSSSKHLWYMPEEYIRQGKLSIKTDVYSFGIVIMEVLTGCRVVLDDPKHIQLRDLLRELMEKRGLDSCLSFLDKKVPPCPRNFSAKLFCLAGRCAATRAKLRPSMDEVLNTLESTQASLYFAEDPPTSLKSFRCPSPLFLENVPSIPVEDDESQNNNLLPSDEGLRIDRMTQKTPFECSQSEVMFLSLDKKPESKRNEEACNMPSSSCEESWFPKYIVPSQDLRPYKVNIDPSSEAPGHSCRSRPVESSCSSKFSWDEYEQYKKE

[11] = molecular target: plurality of kinases (Table 5) (Homo sapiens, UniProt P07948)
plurality of kinases (Table 5) (Homo sapiens, UniProt P07948), sequence (P07948 whole entry): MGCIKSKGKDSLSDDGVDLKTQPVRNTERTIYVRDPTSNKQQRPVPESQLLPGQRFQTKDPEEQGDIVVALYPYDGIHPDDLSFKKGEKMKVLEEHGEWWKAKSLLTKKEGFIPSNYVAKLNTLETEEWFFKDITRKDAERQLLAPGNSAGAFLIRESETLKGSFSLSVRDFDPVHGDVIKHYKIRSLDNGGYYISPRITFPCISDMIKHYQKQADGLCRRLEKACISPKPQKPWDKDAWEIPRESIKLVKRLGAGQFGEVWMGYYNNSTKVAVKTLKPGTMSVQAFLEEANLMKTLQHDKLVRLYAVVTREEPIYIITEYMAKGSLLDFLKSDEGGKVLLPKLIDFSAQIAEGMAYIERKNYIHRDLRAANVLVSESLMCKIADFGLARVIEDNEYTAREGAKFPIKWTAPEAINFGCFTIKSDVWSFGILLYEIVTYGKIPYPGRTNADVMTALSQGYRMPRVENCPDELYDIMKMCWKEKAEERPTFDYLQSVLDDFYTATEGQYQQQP

[12] = molecular target: plurality of kinases (Table 5) (Homo sapiens, UniProt Q13627); settings: plate G6
[13] = molecular target: plurality of kinases (Table 5) (Homo sapiens, UniProt Q7KZI7); settings: plate C4; inhibitor 100 uM
[14] = plate A5, Domain 0, inhibitor 100 uM

Inhibition level, PIM1 ([6]; plate C2, inhibitor 100 uM)	Inhibition level, STK24 [8]	Inhibition level, RET ([9]; inhibitor 100 uM)	Inhibition level, DYRK1A ([12]; inhibitor 100 uM)	Inhibition level, MARK2 [13]	SMILES	Inhibition level, ITK [1]	Inhibition level, ABL1 ([2]; inhibitor 100 uM)	Inhibition level, PTK2B ([3]; inhibitor 100 uM)	Inhibition level, FER [4]	Inhibition level, STK4 ([5]; inhibitor 100 uM)	Inhibition level, FGR ([7]; inhibitor 100 uM)	Inhibition level, IRAK3 [10]	Inhibition level, LYN [11, 14]	further results
2	2	2	2	2	O=c1c(-c2ccc(O)cc2)coc2cc(O)cc(O)c12 [Genistein]	2	0	2	2	0	2	2	2	Inhibition level, ABL1 ([2]; Genistein, conc. not given): 0; Inhibition level, STK4 ([5]; Genistein, conc. not given): 0; Inhibition level, PIM1 ([6]; plate C2, Genistein <3.7 mM): 0; Inhibition level, FGR ([7]; Genistein, conc. not given): 2; Inhibition level, RET ([9]; Genistein, conc. not given): 0; Inhibition level, LYN ([11]; plate A5, Domain 0, Genistein <3.7 mM): 2; Inhibition level, DYRK1A ([12]; Genistein <3.7 mM): 1
2	2	0	2	2	O=S(=O)(NCCNC/C=C/c1ccc(Br)cc1)c1cccc2cnccc12 [H-89]	1	0	1	2	2	2	0	2	
2	2	2	1	2	CC(C)(C)n1nc(-c2ccc(Cl)cc2)c2c(N)ncnc21 [PP2]	2		2	2	2	2	2	2	
					O=c1c(O)c(-c2ccc(O)c(O)c2)oc2cc(O)cc(O)c12 [Quercetin]	0		1	1	0	2	0	2	
0	2	0	2	2	Cn1cc(C2=C(c3cn(CCCSC(=N)N)c4ccccc34)C(=O)NC2=O)c2ccccc21 [Ro-31-8220]	2	2	2	2	2	2	2	2	Inhibition level, ABL1 ([2]; Ro-31-8220, conc. not given): 0; Inhibition level, PTK2B ([3]; Ro-31-8220 90 uM): 0; Inhibition level, STK4 ([5]; Ro-31-8220, conc. not given): 0; Inhibition level, PIM1 ([6]; plate C2, Ro-31-8220 90 uM): 2; Inhibition level, FGR ([7]; Ro-31-8220, conc. not given): 2; Inhibition level, RET ([9]; Ro-31-8220, conc. not given): 2; Inhibition level, LYN ([11]; plate A5, Domain 0, Ro-31-8220 90 uM): 0; Inhibition level, DYRK1A ([12]; Ro-31-8220 90 uM): 0
					CN[C@@H]1C[C@H]2O[C@@](C)([C@@H]1OC)n1c3ccccc3c3c4c(c5c6ccccc6n2c5c31)C(=O)NC4 [Staurosporine]									Inhibition level, PTK2B ([3]; Staurosporine 21.5 uM): 0; Inhibition level, STK4 ([5]; Staurosporine, conc. not given): 0; Inhibition level, PIM1 [6]: 2; Inhibition level, FGR ([7]; Staurosporine, conc. not given): 2; Inhibition level, LYN [11]: 0

SMILES	Inhibition level, PIM1 ([6]; plate C2, inhibitor 100 uM)	Inhibition level, STK24 [8]	Inhibition level, RET ([9]; inhibitor 100 uM)	Inhibition level, DYRK1A ([12]; inhibitor 100 uM)	Inhibition level, MARK2 [13]	Inhibition level, ITK [1]	Inhibition level, ABL1 ([2]; inhibitor 100 uM)	Inhibition level, PTK2B ([3]; inhibitor 100 uM)	Inhibition level, FER [4]	Inhibition level, STK4 ([5]; inhibitor 100 uM)	Inhibition level, FGR ([7]; inhibitor 100 uM)	Inhibition level, IRAK3 [10]	Inhibition level, LYN [11, 14]	further results
N#C/C(=C/c1ccc(O)c(O)c1)C(=O)NCc1ccccc1 [AG 490]	2	2	2	2	2	1	0	2	2	0	2	0	2	
COc1cc2ncnc(Nc3cccc(Cl)c3)c2cc1OC [AG 1478]	1	1	2	0	2	1	1	2	1	1	2	2	2	
CC(=O)c1c(O)c(C)c(O)c(Cc2c(O)c3c(c(C(=O)/C=C/c4ccccc4)c2O)OC(C)(C)C=C3)c1O [Rottlerin (Mallotoxin)]	2	1	0	0	2	1	0	2	2	0	2	2	2	
